Measured values published in article PMC10343299, “S-Ethyl-Isothiocitrullin-Based Dipeptides and 1,2,4-Oxadiazole Pseudo-Dipeptides: Solid Phase Synthesis and Evaluation as NO Synthase Inhibitors” (Molecules, 2023).
Where two headings read alike, the source gives them in different places.

Key:
INS-1 cells (nNOS) = experiment: Glucose-induced insulin secretion; type: cell-based; settings: 5.6 mM glucose, no IL-1β, 1 h, compounds 500 µM to 5 mM, L-NAME 5 mM
Procedure: Indeed, pancreatic β-cells are known to constitutively express the nNOS isoform, which negatively modulates glucose-induced insulin secretion.
The insulin-secreting cell line INS-1 (a gift from Prof. C. Wolheim, Geneva, Switzerland) was cultured in RPMI-1640 supplemented with 10% FCS, 100 units/mL penicillin, 100 µg/mL streptomycin, 2 mM L-glutamine, 10 mM HEPES, 1 mM sodium pyruvate, and […] 2-mercaptoethanol, according to M. Asfari et al.’s method.
The functional effects of compounds were evaluated on INS-1 cells. Cells were preincubated for 1 h at 37 °C in a Krebs–Ringer bicarbonate buffer (108 mM NaCl, 1.19 mM KH2PO4, 4.74 mM KCl, 2.54 mM CaCl2, 1.19 mM MgSO4·7H2O, and 18 mM NaHCO3) containing 2 g/L BSA in the absence of glucose. After removal of the medium, the cells were stimulated for another hour at 37°C in the same buffer in the presence of 5.6 mM glucose and the presence of increasing concentrations of L-NAME or compounds (from 500 µM to 5 mM). At the end of the incubation period, the medium was collected, and the insulin was measured using an insulin high-range assay kit (CisBio, Codolet, France). Data are expressed as means ± SEM of the experiments (indicated in the result part).

mouse iNOS = target: T1, mouse iNOS (Mus musculus, UniProt P29477); experiment: NOS inhibition, oxyhemoglobin (hemoglobin capture) test, recombinant iNOS; type: biochemical; settings: recombinant enzyme, 20 µM arginine, triplicate, NI = <50% inhibition at 100 μM; for inhibition at 100 µM: read-out: IC50 (μM) iNOS (Mouse)
T1 construct: Full-length recombinant rat nNOS, mouse iNOS, bovine eNOS; made in house; host or cells: Escherichia coli
T1 sequence (P29477 1-1144): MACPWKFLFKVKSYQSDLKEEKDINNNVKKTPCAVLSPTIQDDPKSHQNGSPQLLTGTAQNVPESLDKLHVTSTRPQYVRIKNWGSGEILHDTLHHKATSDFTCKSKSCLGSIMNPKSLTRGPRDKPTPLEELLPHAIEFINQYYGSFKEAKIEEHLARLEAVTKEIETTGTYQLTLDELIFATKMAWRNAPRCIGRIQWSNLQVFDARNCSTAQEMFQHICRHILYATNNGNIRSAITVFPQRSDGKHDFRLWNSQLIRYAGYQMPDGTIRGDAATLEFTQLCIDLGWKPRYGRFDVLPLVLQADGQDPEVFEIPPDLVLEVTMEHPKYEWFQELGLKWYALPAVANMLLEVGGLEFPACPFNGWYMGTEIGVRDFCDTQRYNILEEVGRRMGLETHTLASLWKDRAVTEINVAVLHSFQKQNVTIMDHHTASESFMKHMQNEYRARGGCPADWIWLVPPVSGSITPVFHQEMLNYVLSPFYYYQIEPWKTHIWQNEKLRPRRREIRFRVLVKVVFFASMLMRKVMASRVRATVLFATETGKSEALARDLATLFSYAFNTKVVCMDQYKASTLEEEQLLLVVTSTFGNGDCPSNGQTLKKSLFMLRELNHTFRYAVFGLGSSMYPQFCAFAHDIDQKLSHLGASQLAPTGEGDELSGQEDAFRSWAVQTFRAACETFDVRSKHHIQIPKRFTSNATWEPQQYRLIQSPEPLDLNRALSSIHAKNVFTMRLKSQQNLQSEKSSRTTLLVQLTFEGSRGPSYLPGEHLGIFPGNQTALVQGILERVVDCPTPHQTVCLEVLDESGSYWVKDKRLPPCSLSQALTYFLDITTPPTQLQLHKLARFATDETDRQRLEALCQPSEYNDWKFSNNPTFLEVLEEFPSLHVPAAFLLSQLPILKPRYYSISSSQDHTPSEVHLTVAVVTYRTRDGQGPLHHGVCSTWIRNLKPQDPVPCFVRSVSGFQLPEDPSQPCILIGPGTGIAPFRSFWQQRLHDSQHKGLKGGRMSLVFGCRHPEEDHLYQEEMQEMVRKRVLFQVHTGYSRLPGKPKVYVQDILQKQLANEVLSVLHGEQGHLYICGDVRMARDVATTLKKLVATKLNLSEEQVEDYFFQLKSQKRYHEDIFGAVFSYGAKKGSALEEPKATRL
Procedure: (§1) The inhibitory effects of all compounds against the three recombinant NOSs (rat nNOS, mouse iNOS, and bovine eNOS) were evaluated in 96-well plates using the oxyhemoglobin test. A first screening at 100 and 10 μM was performed, and the IC50 values were measured for compounds showing more than 50% inhibition at 100 μM (Table 1 and Table 2).
(§2) Full-length recombinant rat nNOS, mouse iNOS, bovine eNOS, and the heme domains of rat brain nNOS and mouse iNOS were expressed in Escherichia coli and purified as described previously.
(§3) NOS catalytic activity was measured using the hemoglobin capture assay. The test was performed at 30 °C in 96-well microplates using a final volume of 200 µL. The assay mixture contained 100 µM NADPH, 10 µM BH4, 6 µM HbO2, 100 µM DTT, 5 µM FAD, 5 µM FMN, 10 µM (nNOS and eNOS), or 20 µM (iNOS) arginine, all in a 100 mM Hepes buffer, pH 7.5, and, for constitutive n- and e-NOS, 10 µg/mL calmodulin, and 1 mM CaCl2. The studied compounds were introduced as 2 μL of ×100 concentrated solutions in DMSO, and the control experiments were performed with DMSO or the buffer only. The kinetics of NO production were measured at 401 nm using an Infinite F500 microplate reader (Tecan, Singapore).

rat nNOS = target: T2, rat nNOS (Rattus norvegicus, UniProt P29476); experiment: NOS inhibition, oxyhemoglobin (hemoglobin capture) test, recombinant nNOS; type: biochemical; settings: for IC50: recombinant enzyme, 10 µM arginine, triplicate, NI = <50% inhibition at 100 μM
T2 construct: Full-length recombinant rat nNOS, mouse iNOS, bovine eNOS; made in house; host or cells: Escherichia coli
Procedure: as §1, §2, §3

bovine eNOS = target: T3, bovine eNOS (Bos taurus, UniProt P29473); experiment: NOS inhibition, oxyhemoglobin (hemoglobin capture) test, recombinant eNOS; type: biochemical; settings: recombinant enzyme, 10 µM arginine, triplicate, NI = <50% inhibition at 100 μM; for inhibition at 100 µM: read-out: IC50 (μM) eNOS (Bovine)
T3 construct: Full-length recombinant rat nNOS, mouse iNOS, bovine eNOS; made in house; host or cells: Escherichia coli
Procedure: The inhibitory effects of all compounds against the three recombinant NOSs (rat nNOS, mouse iNOS, and bovine eNOS) were evaluated in 96-well plates using the oxyhemoglobin test [53].
NOS catalytic activity was measured using the hemoglobin capture assay [53]. The test was performed at 30 °C in 96-well microplates using a final volume of 200 µL. The assay mixture contained 100 µM NADPH, 10 µM BH4, 6 µM HbO2, 100 µM DTT, 5 µM FAD, 5 µM FMN, 10 µM (nNOS and eNOS), or 20 µM (iNOS) arginine, all in a 100 mM Hepes buffer, pH 7.5, and, for constitutive n- and e-NOS, 10 µg/mL calmodulin, and 1 mM CaCl2. The studied compounds were introduced as 2 μL of ×100 concentrated solutions in DMSO, and the control experiments were performed with DMSO or the buffer only. The kinetics of NO production were measured at 401 nm using an Infinite F500 microplate reader (Tecan, Singapore).

RAW 264.7 cells = experiment: Cell viability, MTT assay; type: cell-based, murine; settings: for Effect on cell viability (MTT): up to 100 μM
Procedure: Cell viability was evaluated in the murine macrophage RAW 264.7 cells using an MTT assay for compounds 18, 21, 26, and 30. This experiment was performed without or with LPS (1 µg/mL), which induces iNOS expression (Figure S1). […] Compound 30 only killed 20% of the cells at 500 μM (Figure S1A). In the presence of LPS (1 µg/mL), cell viability was reduced by 30% due to the inhibition by NO of key enzymes involved in cell metabolism (Figure S1B).
The macrophage cell line RAW 264.7 (a gift from Dr. A. Blangy, Montpellier, France) was cultured in Dulbecco’s Modified Eagle’s Medium (DMEM) supplemented with 10% FCS, 100 units/mL penicillin, 100 µg/mL streptomycin, and 2 mM L-glutamine.
Cellular NO production was measured using the Griess reagent (Sigma-Aldrich), which evaluates the nitrite content in culture media. Cellular toxicity was estimated by the MTT assay (Sigma-Aldrich) in RAW 264.7 cells after the induction (or not) of iNOS by LPS, according to the manufacturer’s recommendations.

[1] = target: T4, oxygenase domain of nNOS (nNOSoxy) (Rattus norvegicus, UniProt P29476); experiment: UV-visible difference spectroscopy titration of nNOSoxy; type: binding; settings: UV/Vis difference spectroscopy, ± SD, three experiments; read-out: Apparent equilibrium constant Ks nNOSoxy
T4 construct: the oxygenase domain of nNOS (nNOSoxy) and iNOS (iNOSoxy); made in house; host or cells: Escherichia coli
Excerpt: (§4) We performed UV–visible difference spectroscopy to analyze the interaction mode of some inhibitors with the heme-active site of NOS [54]. We have studied the effects of dipeptide-like compounds 7, 17, 19, 23, and 27 and 1,2,4-oxadiazole 35 on the UV–visible spectra of the oxygenase domain of nNOS (nNOSoxy) and iNOS (iNOSoxy). As expected, when added stepwise to n- and iNOSoxy, all selected compounds elicited different spectra with a trough at ~425 nm and a peak at ~395 nm, similar to the substrate L-arginine. This profile is characteristic of type I interactions, meaning that they are bound in close proximity to the heme prosthetic group and shifted the spin state equilibrium to the pentacoordinated heme–Fe^III state. Double reverse plotting of the differences in absorbance between the peak at ~395 nm and valley at ~425 nm (ΔA395–425 nm) as a function of the concentration of the added compounds allowed calculating apparent binding constants (Ks) (Table 3). The reference inhibitor SEITU [55] tightly bound both NOS isoforms with high affinity but no selectivity. With the exception of the dipeptide-like 27 and the heterocyclic analog 35, which similarly interacted with both proteins, other compounds preferentially bound nNOSoxy over iNOSoxy with apparent affinities close to SEITU for this isoform.
as §2
(§5) This study was performed as previously described.

[2] = target: T5, oxygenase domain of iNOS (iNOSoxy) (Mus musculus, UniProt P29477); experiment: UV-visible difference spectroscopy titration of iNOSoxy; type: binding; settings: UV/Vis difference spectroscopy, ± SD, three experiments; read-out: Apparent equilibrium constant Ks iNOSoxy
T5 construct: the oxygenase domain of nNOS (nNOSoxy) and iNOS (iNOSoxy); made in house; host or cells: Escherichia coli
T5 sequence (P29477 1-498 limits assumed): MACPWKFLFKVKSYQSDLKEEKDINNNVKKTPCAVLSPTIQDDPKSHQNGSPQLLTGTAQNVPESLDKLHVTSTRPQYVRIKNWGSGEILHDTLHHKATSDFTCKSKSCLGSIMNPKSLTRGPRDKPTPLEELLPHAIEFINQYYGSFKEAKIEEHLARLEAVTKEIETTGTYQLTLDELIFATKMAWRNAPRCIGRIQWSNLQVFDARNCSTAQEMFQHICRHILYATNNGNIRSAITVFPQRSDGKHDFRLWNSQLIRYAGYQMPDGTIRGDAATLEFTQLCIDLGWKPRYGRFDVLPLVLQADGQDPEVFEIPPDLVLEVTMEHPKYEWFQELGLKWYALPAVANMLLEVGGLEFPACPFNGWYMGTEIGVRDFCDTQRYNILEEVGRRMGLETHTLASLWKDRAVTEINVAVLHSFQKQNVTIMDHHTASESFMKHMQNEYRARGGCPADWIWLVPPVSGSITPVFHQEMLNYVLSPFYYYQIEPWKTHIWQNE
Excerpt: as §4, §2, §5

T2 sequence (P29476 whole entry): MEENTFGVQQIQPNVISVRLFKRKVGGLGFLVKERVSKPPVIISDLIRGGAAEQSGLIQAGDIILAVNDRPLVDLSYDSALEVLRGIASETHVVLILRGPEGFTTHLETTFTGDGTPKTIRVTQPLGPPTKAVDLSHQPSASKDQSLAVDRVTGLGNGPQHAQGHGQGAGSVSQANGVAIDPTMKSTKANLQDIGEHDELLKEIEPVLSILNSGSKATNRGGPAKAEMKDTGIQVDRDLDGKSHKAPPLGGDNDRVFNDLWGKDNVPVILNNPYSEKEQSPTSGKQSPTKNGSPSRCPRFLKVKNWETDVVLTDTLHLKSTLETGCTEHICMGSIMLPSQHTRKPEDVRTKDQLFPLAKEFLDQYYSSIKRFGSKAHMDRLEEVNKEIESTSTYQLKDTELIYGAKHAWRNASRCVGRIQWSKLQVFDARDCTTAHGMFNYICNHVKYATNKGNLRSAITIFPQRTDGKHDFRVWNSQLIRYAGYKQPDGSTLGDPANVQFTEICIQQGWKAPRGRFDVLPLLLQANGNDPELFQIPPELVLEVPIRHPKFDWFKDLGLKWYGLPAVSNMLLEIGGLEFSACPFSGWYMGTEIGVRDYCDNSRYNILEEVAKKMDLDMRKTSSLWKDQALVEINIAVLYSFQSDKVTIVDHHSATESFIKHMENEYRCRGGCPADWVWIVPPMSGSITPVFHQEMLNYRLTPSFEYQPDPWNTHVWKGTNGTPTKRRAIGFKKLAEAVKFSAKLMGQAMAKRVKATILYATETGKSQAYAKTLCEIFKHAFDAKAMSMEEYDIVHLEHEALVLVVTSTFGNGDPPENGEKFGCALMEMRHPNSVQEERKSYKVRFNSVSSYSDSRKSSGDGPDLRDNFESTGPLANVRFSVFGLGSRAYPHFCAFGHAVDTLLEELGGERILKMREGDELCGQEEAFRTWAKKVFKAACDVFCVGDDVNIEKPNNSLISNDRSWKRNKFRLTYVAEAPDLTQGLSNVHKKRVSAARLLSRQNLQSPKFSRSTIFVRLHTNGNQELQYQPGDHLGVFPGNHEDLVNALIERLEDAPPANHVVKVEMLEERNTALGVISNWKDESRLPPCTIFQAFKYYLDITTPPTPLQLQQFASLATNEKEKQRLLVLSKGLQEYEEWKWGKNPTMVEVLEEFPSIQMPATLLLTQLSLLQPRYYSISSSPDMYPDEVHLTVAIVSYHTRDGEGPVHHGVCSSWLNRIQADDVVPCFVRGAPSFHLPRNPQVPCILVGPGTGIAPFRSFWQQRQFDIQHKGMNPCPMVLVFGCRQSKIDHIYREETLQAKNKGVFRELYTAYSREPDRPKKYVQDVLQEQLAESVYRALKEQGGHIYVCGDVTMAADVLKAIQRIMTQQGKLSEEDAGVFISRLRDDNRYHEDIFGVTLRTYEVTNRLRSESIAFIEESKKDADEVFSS
T3 sequence (P29473 whole entry): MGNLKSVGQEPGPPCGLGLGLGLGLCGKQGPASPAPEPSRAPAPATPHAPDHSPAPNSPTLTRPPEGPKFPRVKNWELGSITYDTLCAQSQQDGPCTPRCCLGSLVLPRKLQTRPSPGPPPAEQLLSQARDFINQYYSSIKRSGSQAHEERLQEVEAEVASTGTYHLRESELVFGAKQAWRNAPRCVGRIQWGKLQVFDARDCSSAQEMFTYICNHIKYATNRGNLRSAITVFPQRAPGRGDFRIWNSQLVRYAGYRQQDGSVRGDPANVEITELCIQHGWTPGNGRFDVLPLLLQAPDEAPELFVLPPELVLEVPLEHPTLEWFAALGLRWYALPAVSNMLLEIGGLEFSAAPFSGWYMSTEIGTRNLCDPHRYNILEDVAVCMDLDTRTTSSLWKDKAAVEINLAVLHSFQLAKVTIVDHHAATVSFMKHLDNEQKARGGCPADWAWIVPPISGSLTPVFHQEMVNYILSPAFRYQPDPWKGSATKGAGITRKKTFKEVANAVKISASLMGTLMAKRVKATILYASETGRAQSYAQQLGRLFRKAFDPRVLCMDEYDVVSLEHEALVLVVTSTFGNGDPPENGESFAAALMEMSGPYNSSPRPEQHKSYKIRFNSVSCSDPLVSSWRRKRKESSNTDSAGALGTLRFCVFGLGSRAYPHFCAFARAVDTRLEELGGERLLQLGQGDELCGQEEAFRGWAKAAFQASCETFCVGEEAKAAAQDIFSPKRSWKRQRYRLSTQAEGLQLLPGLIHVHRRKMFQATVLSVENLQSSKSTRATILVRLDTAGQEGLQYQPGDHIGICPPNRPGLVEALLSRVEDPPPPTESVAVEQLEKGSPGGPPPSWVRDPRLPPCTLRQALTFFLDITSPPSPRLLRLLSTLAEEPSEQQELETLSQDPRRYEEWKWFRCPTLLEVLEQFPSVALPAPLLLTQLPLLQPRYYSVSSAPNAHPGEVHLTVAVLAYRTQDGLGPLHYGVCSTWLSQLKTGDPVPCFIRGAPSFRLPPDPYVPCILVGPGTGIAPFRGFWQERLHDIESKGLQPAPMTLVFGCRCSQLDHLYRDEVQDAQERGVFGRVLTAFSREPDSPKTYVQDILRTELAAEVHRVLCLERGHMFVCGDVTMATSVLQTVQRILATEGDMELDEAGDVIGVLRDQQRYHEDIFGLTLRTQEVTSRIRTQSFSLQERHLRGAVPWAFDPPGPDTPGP
T4 sequence (P29476 1-720 limits assumed): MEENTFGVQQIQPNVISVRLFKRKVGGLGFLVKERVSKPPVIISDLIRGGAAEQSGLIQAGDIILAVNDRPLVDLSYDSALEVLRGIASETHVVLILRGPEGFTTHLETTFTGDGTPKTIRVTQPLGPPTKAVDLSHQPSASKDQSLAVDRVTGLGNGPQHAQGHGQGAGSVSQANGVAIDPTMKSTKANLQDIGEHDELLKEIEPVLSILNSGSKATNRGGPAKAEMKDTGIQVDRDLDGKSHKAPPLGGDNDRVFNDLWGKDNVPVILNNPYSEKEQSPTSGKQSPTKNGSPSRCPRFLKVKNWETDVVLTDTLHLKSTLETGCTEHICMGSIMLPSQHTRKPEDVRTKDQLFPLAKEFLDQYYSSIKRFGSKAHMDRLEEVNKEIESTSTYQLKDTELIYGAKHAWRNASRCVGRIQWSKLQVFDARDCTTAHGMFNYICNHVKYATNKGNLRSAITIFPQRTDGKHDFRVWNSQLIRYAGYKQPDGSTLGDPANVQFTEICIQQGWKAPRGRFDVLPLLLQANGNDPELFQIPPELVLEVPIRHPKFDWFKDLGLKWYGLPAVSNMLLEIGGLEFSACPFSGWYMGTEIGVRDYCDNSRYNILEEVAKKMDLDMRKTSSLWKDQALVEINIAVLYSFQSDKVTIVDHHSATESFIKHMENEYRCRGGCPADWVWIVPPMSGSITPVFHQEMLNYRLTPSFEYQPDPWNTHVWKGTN

Row | Structure (SMILES) | Effect on insulin secretion (INS-1 cells (nNOS)) | IC50 (mouse iNOS; dipeptide-like series) | IC50 (rat nNOS; dipeptide-like series) | inhibition at 100 µM (bovine eNOS; dipeptide-like series) | Kd [1] | Kd [2] | further results
1 | CCSC(=N)NCCC[C@H](N)C(=O)N[C@H]1CCCN(Cc2cc([N+](=O)[O-])ccc2O)C1 [Compound 14] | dose-dependently stimulate glucose insulin secretion with better efficiency than L-NAME | 27.8 µM | 5.4 µM | – | – | – | –
2 | CCSC(=N)NCCC[C@H](N)C(=O)N[C@H]1CCCN(Cc2ccc(C(F)(F)F)c(Cl)c2)C1 [Compound 18] | dose-dependently stimulate glucose insulin secretion with better efficiency than L-NAME | – | 6 µM | < 50% | – | – | inhibition at 100 µM (mouse iNOS; dipeptide-like series): < 50%; Reversal of LPS-induced reduction of cell viability (RAW 264.7 cells; RAW 264.7, LPS 1 µg/mL): none partially reversed the LPS effect; Effect on cell viability (MTT) (RAW 264.7 cells; RAW 264.7, absence of LPS): fully toxic
3 | CCSC(=N)NCCC[C@H](N)C(=O)N[C@H]1CCCN(Cc2ccccc2C(F)(F)F)C1 [Compound 19] | – | – | 7.7 µM | < 50% | 5.2 ± 1.1 µM | 96 ± 36 µM | inhibition at 100 µM (mouse iNOS; dipeptide-like series): < 50%
4 | CCSC(=N)NCCC[C@H](N)C(=O)N[C@H]1CCCN(Cc2ccc3ccccc3c2)C1 [Compound 22] | dose-dependently stimulate glucose insulin secretion with better efficiency than L-NAME | 11.9 µM | 12.7 µM | < 50% | – | – | –
5 | CCSC(=N)NCCC[C@H](N)C(=O)N[C@H]1CCCN(Cc2ccc(-c3ccccc3)cc2)C1 [Compound 23] | – | 46.9 µM | 5.4 µM | < 50% | 11.4 ± 3.8 µM | 92.5 ± 8.8 µM | –
6 | CCSC(=N)NCCC[C@H](N)c1nc(CCN(Cc2ccccc2)Cc2ccccc2)no1 [Compound 30] | – | – | – | – | – | – | IC50 (mouse iNOS; 1,2,4-oxadiazole series): 1.3 µM; IC50 (bovine eNOS; 1,2,4-oxadiazole series): 99.6 µM; IC50 (rat nNOS; 1,2,4-oxadiazole series): 1.6 µM; Cells killed (RAW 264.7 cells; RAW 264.7, absence of LPS, 500 μM): 20%; Effect on cell viability (MTT) (RAW 264.7 cells; RAW 264.7, absence of LPS): did not modify cell viability
7 | CCSC(=N)NCCC[C@H](N)c1nc(CCN(Cc2ccc3ccccc3c2)Cc2ccc3ccccc3c2)no1 [Compound 35] | – | – | – | – | 47.1 ± 13 µM | 42.4 ± 8.7 µM | IC50 (mouse iNOS; 1,2,4-oxadiazole series): 11.7 µM; inhibition at 100 µM (bovine eNOS; 1,2,4-oxadiazole series): < 50%; IC50 (rat nNOS; 1,2,4-oxadiazole series): 0.4 µM; Selectivity for nNOS against eNOS (rat nNOS; from IC50 values): > 250 fold; Selectivity for nNOS against iNOS (rat nNOS; from IC50 values): approximately 30 fold
8 | COC(=O)[C@@H](N)CCCNC(N)=N[N+](=O)[O-] [L-NAME, reference compound] | potentiated insulin release | – | – | – | – | – | –
